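1) Cells in 96-well plates. 2) Compound, 48 h, 5 concentrations. 3) Linear interpolation between surrounding doses. 4) Unreached endpoint = highest concentration. The concentration for full growth arrest is given as TGI.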
How the values were obtained:
Assay in all cases: growth of human tumour cells (NCI), 48 h
[1] = test system: OVCAR-4 ovarian
[2] = test system: RXF-631 renal
[3] = test system: UO-31 renal
[4] = test system: HOP-18 NSCLC
[5] = test system: CCRF-CEM leukemia
[6] = test system: M19-MEL melanoma
[7] = test system: SNB-19 CNS
[8] = test system: SW-620 colon
[9] = test system: DMS 114 small cell lung
[10] = test system: XF 498 CNS
[11] = test system: MALME-3M melanoma
[12] = test system: SK-MEL-28 melanoma
[13] = test system: A549 NSCLC
[14] = test system: SF-268 CNS
[15] = test system: HT29 colon
[16] = test system: CAKI-1 renal
[17] = test system: NCI-H226 lung
[18] = test system: SK-MEL-2 melanoma
[19] = test system: SF-539 CNS
[20] = test system: SN12C renal
[21] = test system: KM12 colon
[22] = test system: MOLT-4 leukemia
[23] = test system: SK-MEL-5 melanoma
[24] = test system: HL-60(TB) leukemia
[25] = test system: KM20L2 colon
[26] = test system: HOP-62 NSCLC
[27] = test system: SR leukemia
[28] = test system: HCT-116 colon
[29] = test system: OVCAR-5 ovarian
[30] = test system: K-562 leukemia
[31] = test system: UACC-62 melanoma
[32] = test system: HCC-2998 colon
[33] = test system: M14 melanoma
[34] = test system: OVCAR-8 ovarian
[35] = test system: EKVX NSCLC
[36] = test system: HCT-15 colon
[37] = test system: DLD-1 colon
[38] = test system: IGROV1 ovarian
[39] = test system: SNB-75 CNS
[40] = test system: LOX IMVI melanoma
[41] = test system: LXFL 529 NSCLC
[42] = test system: NCI-H460 lung
[43] = test system: UACC-257 melanoma
[44] = test system: SNB-78 CNS
[45] = test system: NCI-H23 lung
[46] = test system: TK-10 renal
[47] = test system: DMS 273 small cell lung
[48] = test system: 786-0 renal
[49] = test system: OVCAR-3 ovarian
[50] = test system: RXF 393 renal
[51] = test system: SF-295 CNS
[52] = test system: HOP-92 NSCLC
[53] = test system: A498 renal
[54] = test system: ACHN renal
[55] = test system: RPMI-8226 leukemia
[56] = test system: SK-OV-3 ovarian
[57] = test system: NCI-H522 lung
[58] = test system: COLO 205 colon
[59] = test system: U251 CNS

CC(C)=C1CCC(CN2CCCC2)C1=O (stereo not drawn)
TGI [1]: 32.3 µM
TGI [2]: > 100 µM
TGI [3]: 36.1 µM
TGI [4]: 32.7 µM
TGI [5]: 39 µM
TGI [6]: 37.4 µM
TGI [7]: > 100 µM
TGI [8]: 47.5 µM
TGI [9]: 37 µM
TGI [10]: 34 µM
TGI [11]: 37.2 µM
TGI [12]: 48.8 µM
TGI [13]: > 100 µM
TGI [14]: 65.7 µM
TGI [15]: 53.5 µM
TGI [16]: 28.9 µM
TGI [17]: > 100 µM
TGI [18]: 77.2 µM
TGI [19]: > 100 µM
TGI [20]: 33.1 µM
TGI [21]: > 100 µM
TGI [22]: 44.3 µM
TGI [23]: > 100 µM
TGI [24]: 50.8 µM
TGI [25]: > 100 µM
TGI [26]: > 100 µM
TGI [27]: 35.9 µM
TGI [28]: 31.6 µM
TGI [29]: > 100 µM
TGI [30]: > 100 µM
TGI [31]: > 100 µM
TGI [32]: 34.6 µM
TGI [33]: 34.1 µM
TGI [34]: > 100 µM
TGI [35]: > 100 µM
TGI [36]: 35.5 µM
TGI [37]: 33.7 µM
TGI [38]: > 100 µM
TGI [39]: > 100 µM
TGI [40]: > 100 µM
TGI [41]: 32.2 µM
TGI [42]: > 100 µM
TGI [43]: 66.7 µM
TGI [44]: > 100 µM
TGI [45]: > 100 µM
TGI [46]: > 100 µM
TGI [47]: > 100 µM
TGI [48]: 30.8 µM
TGI [49]: 31.3 µM
TGI [50]: 39.5 µM
TGI [51]: > 100 µM
TGI [52]: 58.5 µM
TGI [53]: > 100 µM
TGI [54]: 32.7 µM
TGI [55]: 37.8 µM

CCCCCCCCC(=O)NCCCNCCCNC(=O)CCCCCCCC
TGI [1]: 29.9 µM
TGI [3]: 27.6 µM
TGI [4]: 26.6 µM
TGI [5]: 14.9 µM
TGI [6]: 8.38 µM
TGI [7]: 35.9 µM
TGI [8]: 7.3 µM
TGI [9]: 8.79 µM
TGI [10]: 9.22 µM
TGI [56]: 29.2 µM
TGI [57]: 18.8 µM
TGI [11]: 26.6 µM
TGI [12]: 25.6 µM
TGI [13]: 29 µM
TGI [14]: 26 µM
TGI [15]: 7.5 µM
TGI [16]: 27.7 µM
TGI [17]: 35.1 µM
TGI [18]: 9.05 µM
TGI [19]: 29.9 µM
TGI [20]: 16.3 µM
TGI [21]: 3.48 µM
TGI [22]: 10.4 µM
TGI [23]: 14.1 µM
TGI [24]: 3.77 µM
TGI [25]: 6.31 µM
TGI [26]: 27.9 µM
TGI [27]: 5.81 µM
TGI [28]: 9.54 µM
TGI [29]: 28.5 µM
TGI [30]: 4.55 µM
TGI [31]: 12.3 µM
TGI [32]: 6.67 µM
TGI [33]: 4.15 µM
TGI [34]: 32.9 µM
TGI [35]: 30.1 µM
TGI [36]: 28.2 µM
TGI [37]: 7.7 µM
TGI [38]: 10.6 µM
TGI [40]: 3.19 µM
TGI [41]: 7.79 µM
TGI [42]: 6.57 µM
TGI [43]: 19.9 µM
TGI [44]: 26 µM
TGI [45]: 29.9 µM
TGI [58]: 9.57 µM
TGI [46]: 30.2 µM
TGI [59]: 8.92 µM
TGI [47]: 6.03 µM
TGI [48]: 3.52 µM
TGI [49]: 30.5 µM
TGI [50]: 21.7 µM
TGI [51]: 14.2 µM
TGI [52]: 14.1 µM
TGI [53]: 32.1 µM
TGI [54]: 16.1 µM
TGI [55]: 11 µM

Cc1[nH]c(=O)nc(N/N=C/c2ccc(O)cc2)c1C(=O)Nc1ccc(Cl)cc1
TGI [1]: > 100 µM
TGI [2]: > 100 µM
TGI [3]: > 100 µM
TGI [4]: > 100 µM
TGI [5]: > 100 µM
TGI [6]: > 100 µM
TGI [7]: > 100 µM
TGI [8]: > 100 µM
TGI [9]: > 100 µM
TGI [56]: > 100 µM
TGI [57]: > 100 µM
TGI [11]: > 100 µM
TGI [12]: > 100 µM
TGI [13]: > 100 µM
TGI [14]: > 100 µM
TGI [16]: > 100 µM
TGI [17]: > 100 µM
TGI [18]: > 100 µM
TGI [19]: > 100 µM
TGI [20]: > 100 µM
TGI [21]: > 100 µM
TGI [22]: > 100 µM
TGI [23]: > 100 µM
TGI [24]: > 100 µM
TGI [25]: > 100 µM
TGI [26]: > 100 µM
TGI [27]: > 100 µM
TGI [28]: > 100 µM
TGI [30]: > 100 µM
TGI [31]: > 100 µM
TGI [32]: > 100 µM
TGI [33]: > 100 µM
TGI [34]: > 100 µM
TGI [35]: > 100 µM
TGI [36]: > 100 µM
TGI [37]: > 100 µM
TGI [38]: > 100 µM
TGI [39]: > 100 µM
TGI [41]: > 100 µM
TGI [42]: > 100 µM
TGI [43]: > 100 µM
TGI [44]: > 100 µM
TGI [58]: > 100 µM
TGI [46]: > 100 µM
TGI [59]: > 100 µM
TGI [47]: > 100 µM
TGI [48]: > 100 µM
TGI [49]: > 100 µM
TGI [53]: > 100 µM
TGI [54]: > 100 µM
TGI [55]: > 100 µM
